Results reported in PubChem BioAssay AID2060902 (Molecular Pharmacology Branch, DTP, NCI, 2025).

Tested on: 485368-065-R3-J5-PDC spheroids with HUVEC/MSC, viability
Assay: Anticancer human tumor 485368-065-R3-J5-PDC patient-derived pancreatic carcinoma cell line growth inhibition [RAS]
Details: for IC50: curve of first compound; for viability, T/C: stronger effect = lower value
How it was run: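 Agents were tested in combination matrices in half-log decrements from a top concentration at or near clinical Cmax (10 microM if undetermined). Targets were multi-cell spheroids of tumour lines plus HUVEC and MSC stromal cells.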

[1] = second compound 0.0316 µM, first compound 0.0316 µM
[2] = second compound 0.0316 µM, first compound 0.1 µM
[3] = second compound 0.0316 µM, first compound 0.316 µM
[4] = second compound 0.0316 µM, first compound 1 µM
[5] = second compound 0.0316 µM, first compound 3.16 µM
[6] = second compound 0.0316 µM, first compound 10 µM
[7] = second compound 0.1 µM, first compound 0.0316 µM
[8] = second compound 0.1 µM, first compound 0.1 µM
[9] = second compound 0.1 µM, first compound 0.316 µM
[10] = second compound 0.1 µM, first compound 1 µM
[11] = second compound 0.1 µM, first compound 3.16 µM
[12] = second compound 0.1 µM, first compound 10 µM
[13] = second compound 0.316 µM, first compound 0.0316 µM
[14] = second compound 0.316 µM, first compound 0.1 µM
[15] = second compound 0.316 µM, first compound 0.316 µM
[16] = second compound 0.316 µM, first compound 1 µM
[17] = second compound 0.316 µM, first compound 3.16 µM
[18] = second compound 0.316 µM, first compound 10 µM
[19] = second compound 1 µM, first compound 0.0316 µM
[20] = second compound 1 µM, first compound 0.1 µM
[21] = second compound 1 µM, first compound 0.316 µM
[22] = second compound 1 µM, first compound 1 µM
[23] = second compound 1 µM, first compound 3.16 µM
[24] = second compound 1 µM, first compound 10 µM
[25] = second compound 3.16 µM, first compound 0.0316 µM
[26] = second compound 3.16 µM, first compound 0.1 µM
[27] = second compound 3.16 µM, first compound 0.316 µM
[28] = second compound 3.16 µM, first compound 1 µM
[29] = second compound 3.16 µM, first compound 3.16 µM
[30] = second compound 3.16 µM, first compound 10 µM
[31] = second compound 10 µM, first compound 0.0316 µM
[32] = second compound 10 µM, first compound 0.1 µM
[33] = second compound 10 µM, first compound 0.316 µM
[34] = second compound 10 µM, first compound 1 µM
[35] = second compound 10 µM, first compound 3.16 µM
[36] = second compound 10 µM, first compound 10 µM
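Further: spheroids exposed to agents for seven days before readout.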

## CC(=O)OC12COC1CC(O)C1(C)C(=O)C(O)C3=C(C)C(OC(=O)C(O)C(NC(=O)OC(C)(C)C)c4ccccc4)CC(O)(C(OC(=O)c4ccccc4)C21)C3(C)C (stereo unspecified) + C#Cc1c(F)ccc2cc(O)cc(-c3ncc4c(N5CC6CCC(C5)N6)nc(OCC56CCCN5CC(F)C6)nc4c3F)c12
Second compound 0.0316 µM
  IC50: < 31.6 nM
Second compound 0.1 µM
  IC50: < 31.6 nM
Second compound 0.316 µM
  IC50: < 31.6 nM
Second compound 1 µM
  IC50: < 31.6 nM
Second compound 3.16 µM
  IC50: < 31.6 nM
Second compound 10 µM
  IC50: < 31.6 nM
[1]
  viability, T/C: 12.5%
[2]
  viability, T/C: 12.5%
[3]
  viability, T/C: 13%
[4]
  viability, T/C: 12.7%
[5]
  viability, T/C: 18.7%
[6]
  viability, T/C: 23.6%
[7]
  viability, T/C: 11%
[8]
  viability, T/C: 10.2%
[9]
  viability, T/C: 14.2%
[10]
  viability, T/C: 14.4%
[11]
  viability, T/C: 19.8%
[12]
  viability, T/C: 16.9%
[13]
  viability, T/C: 13%
[14]
  viability, T/C: 13.3%
[15]
  viability, T/C: 17.1%
[16]
  viability, T/C: 14.9%
[17]
  viability, T/C: 15.4%
[18]
  viability, T/C: 14.4%
[19]
  viability, T/C: 11.2%
[20]
  viability, T/C: 13.9%
[21]
  viability, T/C: 12.4%
[22]
  viability, T/C: 16.5%
[23]
  viability, T/C: 14.7%
[24]
  viability, T/C: 26.3%
[25]
  viability, T/C: 11.3%
[26]
  viability, T/C: 9.14%
[27]
  viability, T/C: 12%
[28]
  viability, T/C: 15.7%
[29]
  viability, T/C: 19.1%
[30]
  viability, T/C: 16.1%
[31]
  viability, T/C: 12.9%
[32]
  viability, T/C: 11.2%
[33]
  viability, T/C: 10.8%
[34]
  viability, T/C: 14.3%
[35]
  viability, T/C: 14.7%
[36]
  viability, T/C: 19.1%

## C=CC(=O)N1CCN(c2nc(OCC3CCCN3C)nc3c(F)c(-c4nc(N)cc(C)c4C(F)(F)F)c(Cl)cc23)C(C)C1 (stereo unspecified) + C#Cc1c(F)ccc2cc(O)cc(-c3ncc4c(N5CC6CCC(C5)N6)nc(OCC56CCCN5CC(F)C6)nc4c3F)c12
Second compound 0.0316 µM
  IC50: > 1000 nM
Second compound 0.1 µM
  IC50: > 1000 nM
Second compound 0.316 µM
  IC50: > 1000 nM
Second compound 1 µM
  IC50: > 1000 nM
Second compound 3.16 µM
  IC50: 794 nM
Second compound 10 µM
  IC50: < 3.16 nM
Second compound 0.0316 µM, first compound 0.00316 µM
  viability, T/C: 101%
Second compound 0.0316 µM, first compound 0.01 µM
  viability, T/C: 95.6%
[1]
  viability, T/C: 112%
[2]
  viability, T/C: 106%
[3]
  viability, T/C: 100%
[4]
  viability, T/C: 107%
Second compound 0.1 µM, first compound 0.00316 µM
  viability, T/C: 102%
Second compound 0.1 µM, first compound 0.01 µM
  viability, T/C: 100%
[7]
  viability, T/C: 106%
[8]
  viability, T/C: 101%
[9]
  viability, T/C: 117%
[10]
  viability, T/C: 110%
Second compound 0.316 µM, first compound 0.00316 µM
  viability, T/C: 105%
Second compound 0.316 µM, first compound 0.01 µM
  viability, T/C: 104%
[13]
  viability, T/C: 93.6%
[14]
  viability, T/C: 98.5%
[15]
  viability, T/C: 103%
[16]
  viability, T/C: 101%
Second compound 1 µM, first compound 0.00316 µM
  viability, T/C: 94.3%
Second compound 1 µM, first compound 0.01 µM
  viability, T/C: 95.9%
[19]
  viability, T/C: 98.7%
[20]
  viability, T/C: 97.6%
[21]
  viability, T/C: 94.8%
[22]
  viability, T/C: 72.1%
Second compound 3.16 µM, first compound 0.00316 µM
  viability, T/C: 89.7%
Second compound 3.16 µM, first compound 0.01 µM
  viability, T/C: 83.2%
[25]
  viability, T/C: 81.7%
[26]
  viability, T/C: 72.3%
[27]
  viability, T/C: 71.2%
[28]
  viability, T/C: 44.4%
Second compound 10 µM, first compound 0.00316 µM
  viability, T/C: 38.1%
Second compound 10 µM, first compound 0.01 µM
  viability, T/C: 40.3%
[31]
  viability, T/C: 38.3%
[32]
  viability, T/C: 41.7%
[33]
  viability, T/C: 36.5%
[34]
  viability, T/C: 36.6%

## Cc1nc(N2CCC3(CC2)COC(C)C3N)c(CO)nc1Sc1ccnc(N)c1Cl (stereo unspecified) + C#Cc1c(F)ccc2cc(O)cc(-c3ncc4c(N5CC6CCC(C5)N6)nc(OCC56CCCN5CC(F)C6)nc4c3F)c12
Second compound 0.0316 µM
  IC50: > 10000 nM
Second compound 0.1 µM
  IC50: > 10000 nM
Second compound 0.316 µM
  IC50: 1910 nM
Second compound 1 µM
  IC50: 821 nM
Second compound 3.16 µM
  IC50: 106 nM
Second compound 10 µM
  IC50: < 31.6 nM
[1]
  viability, T/C: 98.3%
[2]
  viability, T/C: 88.5%
[3]
  viability, T/C: 87.3%
[4]
  viability, T/C: 75.1%
[5]
  viability, T/C: 60%
[6]
  viability, T/C: 58.8%
[7]
  viability, T/C: 110%
[8]
  viability, T/C: 92.3%
[9]
  viability, T/C: 74%
[10]
  viability, T/C: 62.7%
[11]
  viability, T/C: 63.6%
[12]
  viability, T/C: 51.8%
[13]
  viability, T/C: 101%
[14]
  viability, T/C: 89.6%
[15]
  viability, T/C: 78.5%
[16]
  viability, T/C: 52.4%
[17]
  viability, T/C: 47.5%
[18]
  viability, T/C: 44%
[19]
  viability, T/C: 91.5%
[20]
  viability, T/C: 77.2%
[21]
  viability, T/C: 56.7%
[22]
  viability, T/C: 47.6%
[23]
  viability, T/C: 42.2%
[24]
  viability, T/C: 30%
[25]
  viability, T/C: 65.9%
[26]
  viability, T/C: 49.7%
[27]
  viability, T/C: 39.1%
[28]
  viability, T/C: 31.9%
[29]
  viability, T/C: 24.7%
[30]
  viability, T/C: 21.6%
[31]
  viability, T/C: 36.3%
[32]
  viability, T/C: 29.7%
[33]
  viability, T/C: 24.3%
[34]
  viability, T/C: 19.9%
[35]
  viability, T/C: 19.7%
[36]
  viability, T/C: 12.8%
